# Experimental data reported in patent US20160010155A1, “KCNK3 Channel Loss-of-Function Mutants in Familial and Idiopathic Pulmonary Arterial Hypertension” (THE TRUSTEES OF COLUMBIA UNIVERSITY IN THE CITY OF NEW YORK, priority 2013, published 2016).
# What was measured:
# TASK-1 = TASK-1 (Homo sapiens, UniProt O14649); conditions: cited from earlier work
# WT hKCNK3 channel = molecular target: T1, WT hKCNK3 channel (Homo sapiens, UniProt O14649); assay: Whole-cell patch clamp of WT hKCNK3 channels expressed in COS-7 cells, drug application; type: cell-based; conditions: 10 μM, current at +60 mV, pH 7.4
# T1 construct: expressed in transfected cells; host or cells: COS-7
# Protocol: Functional analysis of the KCNK3 channel was performed to evaluate the functional effects of the rare genetic variants identified and to provide insight into the disease mechanism. pIRES-CD8-hKCNK3 was kindly provided by Florian Lesage (Institut de Pharmacologie Moléculaire et Cellulaire, Centre National de la Recherche Scientifique and Université de Nice Sophia Antipolis, Valbonne, France). hKCNK3 DNA was amplified and inserted into pcDNA 3.1 (+) vector (Invitrogen). Site-directed mutagenesis was performed using the QuikChange kit (Stratagene) and all constructs were sequenced before use. COS-7 cells (American Type Culture Collection) were grown under conventional conditions (5% CO2, DMEM (Gibco) +GlutaMax medium (Gibco) and 10% fetal bovine serum (Gibco)). […] The topology of the KCNK3 channel was based on the crystal structure of TWIK-1 channel^43 and alignment was performed using GeneDoc.^44 Membrane currents were measured with whole-cell patch-clamp procedures using Axopatch 200B amplifiers (Axon Instruments). […] Current measured at +60 mV was selected for comparison of constructs and drug actions. […] Analyzed data are shown as mean+/−S.E.M. Statistical significance was determined using one-way ANOVA. p<0.05 was considered statistically significant. […]
# [1] = cited from earlier work
# Chain of TASK-1 (O14649 whole entry): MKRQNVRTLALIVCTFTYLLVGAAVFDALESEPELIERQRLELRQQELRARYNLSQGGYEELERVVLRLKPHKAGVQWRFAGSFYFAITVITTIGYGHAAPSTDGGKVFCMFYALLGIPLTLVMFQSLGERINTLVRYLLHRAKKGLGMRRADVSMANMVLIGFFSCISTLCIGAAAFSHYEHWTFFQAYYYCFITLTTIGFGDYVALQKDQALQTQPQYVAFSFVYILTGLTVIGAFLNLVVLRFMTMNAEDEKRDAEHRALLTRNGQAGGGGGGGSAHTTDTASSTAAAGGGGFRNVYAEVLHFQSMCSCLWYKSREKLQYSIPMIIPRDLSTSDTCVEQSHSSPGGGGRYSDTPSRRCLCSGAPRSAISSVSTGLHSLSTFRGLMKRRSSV
# T1 sequence (O14649 whole entry): as above
compound,measurement,setting,value
"FC(F)(F)C(Cl)Br (stereo not drawn) [Halothane, 2-bromo-2-chloro-1,1,1-trifluoroethane]",effect on TASK-1 channel,TASK-1,activated
CCCCCc1ccc(/C=C/C(=O)Nc2cc(Cl)ccc2C(=O)O)cc1 [ONO RS-082],WT hKCNK3 current after application of drug,WT hKCNK3 channel,robust increase
CCCCC[C@H](O)CC[C@@H]1[C@H]2Cc3cccc(OCC(=O)O)c3C[C@H]2C[C@H]1O [Treprostinil],dose linearity of pharmacokinetics,"[1]; continuous subcutaneous, dose range 1.25 to 125 ng/kg/min, two-compartment model",linear
same,excreted in feces,[1]; in vivo,13%
same,excreted in the urine as identified metabolites,[1]; in vivo,64%
same,excreted in the urine as unchanged drug,[1]; in vivo,4%
same,half life,[1]; in vivo,4 h
same,metabolism,[1]; in vivo,substantially metabolized by the liver
"FC(F)OC(Cl)C(F)(F)F (stereo not drawn) [Isoflurane, 2-chloro-2-(difluoromethoxy)-1,1,1-trifluoro-ethane]",effect on TASK-1 channel,TASK-1,activated
